Experimental data as given in EP2905621B1, “MEANS AND METHODS FOR DIAGNOSING AND TREATING CDG CAUSED BY A DEFICIENCY OF PGM1” (Westfälische Wilhelms-Universität Münster, priority 2014, dated 2015).

Experiments:
[1] = Determination of galactose kinetics in whole blood after oral galactose; format: in vivo, human; conditions: healthy volunteer, oral 0.3 g of galactose per kilogram of body weight in 250 ml water
Description: (§1) Galactose powder was supplied by Falcento. Galactose levels in whole blood were determined in a healthy volunteer after the oral consumption of 250 ml of water in which 0.3 g of galactose per kilogram of body weight had been dissolved. Measurements of galactose levels in blood were made by means of spectrophotometry at intervals of 10 minutes during the first hour and at intervals of 30 minutes for an additional 3 hours. Lactose or galactose supplementation was administered as an aqueous solution at a dose of 0.5 to 1.0 g per kilogram per day, divided into three to six daily doses (on the basis of patient preference).
Enzymatic determination of galactose levels in whole blood was performed using exogenous galactose dehydrogenase (galactose + NAD^+ → galactono-1,4-lactone + NADH + H^+). Galactose levels were determined in a healthy control after oral consumption of 0.3 g galactose (falcento AG, Kreuzlingen, Switzerland) per kilogram body weight dissolved in 250 ml water. Measurements of galactose levels were made at intervals of 10 minutes during the first hour and at intervals of 30 minutes for additional three hours.
3000 µl of galactose buffer reagent (Instruchemie, Delfzijl, Netherlands), 100 µl of galactose NAD reagent (Instruchemie) and 200 µl of a diluted calibrator (Instruchemie) were mixed and the absorbance against distilled water was read at a temperature of 25 °C and a wavelength of 340 nm (optical density 1).
500 µl of each whole blood sample were added to 1000 µl perchloric acid (0.33 mol/l) for deproteinization and then centrifuged. 200 µl of the supernatant were added to 3000 µl galactose buffer reagent, 100 µl galactose NAD reagent and absorbance was read (optical density 1). After supplementation of 20 µl galactose start reagent and incubation at 25 °C for 15 min, the optical density 2 was measured in both, the calibrator and blood samples.
For manual calculation of the galactose concentration the following formula was used: galactose(mmol/l) = (ΔO.D.controlorsample)/(ΔO.D.calibrator) × concentrationofcalibrator [formula]

[2] = test system: PGM1-deficient fibroblasts; experiment: Assay for cellular glycosylation efficiency using modified GFP (Glyc-ER-GFP); format: cell-based, human; conditions: fibroblasts from patients, galactose alone added to culture medium
Description: (§2) Analysis of transferrin glycosylation was performed on serum samples with the use of isoelectric focusing, (3,4) sodium dodecyl sulfate-polyacrylamide-gel electrophoresis (SDS-PAGE), (3) or liquid chromatography-mass spectrometry (9) (Fig. 3, and the Examples II). […] Green fluorescent protein engineered for retention in the endoplasmic reticulum was modified to contain an N-glycosylation site that, when glycosylated, causes loss of fluorescence (Glyc-ER-GFP). (11) Glyc-ER-GFP was transfected into patient fibroblasts in culture, and fluorescence was measured by means of quantitative microscopy (see the Examples II).
Glycosylation efficiency was measured using Glyc-ER-GFP constructs as described.^11 In brief, cells were seeded in a 96 wells-plate at 40% confluence. 24h later, they were incubated in medium without or with addition of supplements (e.g. 0-1 mM galactose +/-100µM uridine) for 2 days with medium replacement every day. Cells were then transfected by the Glyc-ER-GFP and maintained in the same culture media for two more days. Cells were fixed using 4% paraformaldehyde/4% sucrose and stained by Hoechst 33342 (Thermo scientific). Plates were analyzed using a high-content microscope, IN Cell 1000 (GE Healthcare), and data were analyzed with the CytoSeer software (Vala Sciences) using a protein mask.

[3] = test system: transferrin; experiment: Dietary supplementation in patients: transferrin glycosylation; format: in vivo, human; conditions: for transferrin glycosylation by mass spectrometry: six patients, 0.5 to 1.0 g per kilogram per day, within 2 weeks
Description: as §2, §1
For high-resolution mass spectrometry of transferrin (Fig. 3), a 5 µl serum sample was incubated with anti-transferrin beads as described.^8 The eluate was analyzed on a microfluidic 6540 LC-chip-QTOF instrument (Agilent Technologies) using a C8 protein chip. Data analysis was performed using Agilent Mass Hunter Qualitative Analysis Software B.04.00. The Agilent BioConfirm Software was used to deconvolute the charge distribution of raw data to reconstructed mass data. For confirmation of the structural annotations, samples were processed for analysis of tryptic transferrin peptides by MALDI-TOF as described^9 (results not shown).

[4] = test system: total serum N-glycome; experiment: Dietary supplementation in patients: total serum N-glycome by capillary electrophoresis; format: in vivo, human; conditions: patients with galactose supplementation
Description: • Figure 1. Glycoprotein Biosynthesis and Congenital Disorders of Glycosylation. For the N-glycosylation of proteins, a glycan precursor is assembled from monosaccharide units on an anchoring isoprenoid alcohol, dolichol, in the membrane of the endoplasmic reticulum. Each glycan precursor is then transferred en bloc to a specific asparagine residue in the nascent peptide chain of a protein being synthesized by a ribosome and entering the endoplasmic reticulum. Because transferrin (brown line) is abundant in blood, it is used as an indicator of the efficiency of the glycosylation system. Transferrin has two glycosylation sites. The protein is transported to the Golgi apparatus, and the glycans are modified in multiple steps. Each fully modified glycan is terminated with two negatively charged sialic acid residues. Thus, the transferrin molecule carries a total of four sialic acid residues. If a genetic defect impairs synthesis of the precursor glycan in the endoplasmic reticulum, one or both glycosylation sites of transferrin may remain unoccupied (white arrow). Such defects are classified as congenital disorders of glycosylation type I (CDG-I). […] CDG-I defects are easily identified owing to the occurrence of transferrin isoforms with two or no sialic acid residues detected by means of IEF. […]

[5] = Dietary supplementation in patients: hormones and clinical course; format: in vivo, human; conditions: for levels of luteinizing hormone, increased by a factor of: initially 2.5th percentile
Description: as §1

[6] = test system: skin fibroblasts; experiment: Evaluation of glycogen by electron microscopy in fibroblasts; format: cell-based, human; conditions: 5.5 mM sugar in medium, 50 h
Description: For electron microscopy, skin fibroblasts of patients and controls were cultured to a confluence of 50 to 70% in M199 medium (Life Technologies) supplemented with 10% fetal calf serum and 1% penicillin/streptomycin in a humidified atmosphere containing 5% CO2 at 37°C. Cells were switched to a medium consisting of DMEM supplemented with 4mM L-glutamine (Invitrogen), 10% dialyzed FCS (Gibco), 1mM uridine (Calbiochem), and either 5.5 mM D-glucose (Sigma), or 5.5 mM D-Galactose (Merck). After 50 h of incubation, cells were centrifuged for 10 min at 1000rpm and fixed by gentle addition of 2% glutaraldehyde buffered with 0.1 M sodium cacodylate pH7.4 after removing the medium. After at least 4h fixation, the pellets were very carefully taken off and post-fixed in 1% osmium tetroxide in Palade buffer pH 7.4 with 1% potassium hexacyanoferrate(III)-trihydrate, and after dehydration in ethanol and propylene oxide, embedded in Epon for electron microscopy. Semithin 1µm thick transverse sections were stained with 1% Toluidine Blue. Ultrathin sections were stained with uranyl acetate and lead citrate and examined on a JEOL 1200 EX\II. […] Cells with small darkly staining aggregates of glycogen were counted as positive. Fibroblasts were prepared for evaluation of glycogen by electron microscopy as described above. The presence of glycogen in control and patient fibroblasts cultured in the presence of either glucose or galactose was assessed by electron microscopy. Cells (of 115-160 total) with small darkly staining aggregates of glycogen were counted as positive. Aggregates are typically more common in glycogen storage diseases (picture for hepatocytes s. Fig. 7, panel C, D).

[7] = Patients 2 and 6, after initiation of galactose treatment

SMILES	plasma concentration of galactose, maximum [1] [µM]	time after which galactose decreased to baseline levels [1] [h]	time of maximum galactose concentration [1] [min]	glycosylation of Glyc-ER-GFP [2]	tetrasialo-transferrin ([3]; Patient 1.1, daily 0.5 g per kg b.w. in 3 portions, doubled after one week, HPLC, within a few weeks, 50 before) [%]	transferrin glycosylation by mass spectrometry [3]	glycosylation of the total serum N-glycome [4]	levels of luteinizing hormone, increased by a factor of ([5]; Patient 2, after initiation of galactose supplementation)	levels of luteinizing hormone, increased by a factor of ([5]; Patient 6, after initiation of galactose supplementation)	hypogonadotropic hypogonadism ([5]; Patients 2 and 6, after initiation of galactose supplementation)	cardiac function [5, 7]	episodes of rhabdomyolysis [5, 7]	ultrasonography of the liver ([5]; Patients 2 and 6, every 3 months during galactose supplementation)	levels of follicle-stimulating hormone (FSH) ([5]; Patients 2 and 6, galactose supplementation)	% of cells with glycogen aggregates ([6]; Control 1 fibroblasts) [%]	% of cells with glycogen aggregates ([6]; Control 2 fibroblasts) [%]	% of cells with glycogen aggregates ([6]; PGM1-6 patient fibroblasts) [%]	% of cells with glycogen aggregates ([6]; PGM1-7 patient fibroblasts) [%]
O=C[C@H](O)[C@@H](O)[C@@H](O)[C@H](O)CO [galactose]	700	2	50	substantially enhanced	70	improved substantially	substantial improvement	5	10	resolved within a few weeks	remained stable	no further episodes	no increase in echogenicity and no signs of cholestasis	normalized	2	4	<1	<1
OC[C@H]1O[C@@H](O[C@H]2[C@H](O)[C@@H](O)C(O)O[C@@H]2CO)[C@H](O)[C@@H](O)[C@H]1O (stereo partly shown) [lactose]	–	–	–	–	–	improved substantially	–	–	–	–	–	–	–	–	–	–	–	–
